For assay [1], the target named is T1, 11-beta-hydroxysteroid dehydrogenase 1 (Homo sapiens, UniProt P28845). The conditions noted are these: HEK293, at 1 µM.
Target sequence in this assay (P28845 whole entry, looked up): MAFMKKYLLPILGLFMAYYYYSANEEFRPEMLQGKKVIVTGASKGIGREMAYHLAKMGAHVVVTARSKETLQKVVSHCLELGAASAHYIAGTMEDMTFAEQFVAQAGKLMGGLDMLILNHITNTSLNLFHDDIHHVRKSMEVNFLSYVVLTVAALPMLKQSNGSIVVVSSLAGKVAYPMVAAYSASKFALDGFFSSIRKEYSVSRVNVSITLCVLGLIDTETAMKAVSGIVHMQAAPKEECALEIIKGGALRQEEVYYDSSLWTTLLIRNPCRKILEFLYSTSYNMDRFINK
Description: Inhibition of full-length human 11beta-HSD1 expressed in HEK293 microsomal fraction at 1 uM using [3H]cortisone as substrate after 2 hr by scintillation proximity assay relative to control
In assay [2] the target is 11-beta-hydroxysteroid dehydrogenase 1 (Mus musculus) (UniProt P50172). The following applies: at 1 µM.
Description: Inhibition of full-length mouse 11beta-HSD1 expressed in HEK293 microsomal fraction at 1 uM using [3H]cortisone as substrate after 1 hr by scintillation proximity assay relative to control
The target of assay [3] is T1, 11-beta-hydroxysteroid dehydrogenase 1. Put plainly: Inhibition of full-length human 11beta-HSD1 expressed in HEK293 microsomal fraction using [3H]cortisone as substrate after 2 hr by scintillation proximity assay. (In a scintillation proximity assay essentially only radioactivity close to the scintillant gives light.)
Target sequence in this assay (P28845 whole entry): as the sequence (P28845 whole entry, looked up) above
The target in assay [4] is T2, 11-beta-hydroxysteroid dehydrogenase type 2 (Homo sapiens, UniProt P80365).
T2 sequence (P80365 whole entry): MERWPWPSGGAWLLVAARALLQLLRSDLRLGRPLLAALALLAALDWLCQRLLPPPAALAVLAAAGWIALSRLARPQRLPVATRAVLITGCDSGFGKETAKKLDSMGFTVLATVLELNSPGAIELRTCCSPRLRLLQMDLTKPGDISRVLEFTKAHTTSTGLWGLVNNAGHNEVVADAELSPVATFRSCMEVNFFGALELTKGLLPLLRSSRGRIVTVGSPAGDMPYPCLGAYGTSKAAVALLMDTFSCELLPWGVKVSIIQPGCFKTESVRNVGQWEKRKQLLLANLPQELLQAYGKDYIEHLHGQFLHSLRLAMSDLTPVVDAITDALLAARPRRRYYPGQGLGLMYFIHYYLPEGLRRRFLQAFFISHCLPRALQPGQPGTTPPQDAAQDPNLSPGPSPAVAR
The assay can be described thus: Inhibition of full-length human 11beta-HSD2 expressed in HEK293 microsomal fraction using [3H]cortisone as substrate after 2 hr by scintillation proximity assay. It is filed as cell-based.

In assay [5] the target is T3, 11-beta-hydroxysteroid dehydrogenase type 2 (Mus musculus, UniProt P51661).
T3 sequence (P51661 whole entry): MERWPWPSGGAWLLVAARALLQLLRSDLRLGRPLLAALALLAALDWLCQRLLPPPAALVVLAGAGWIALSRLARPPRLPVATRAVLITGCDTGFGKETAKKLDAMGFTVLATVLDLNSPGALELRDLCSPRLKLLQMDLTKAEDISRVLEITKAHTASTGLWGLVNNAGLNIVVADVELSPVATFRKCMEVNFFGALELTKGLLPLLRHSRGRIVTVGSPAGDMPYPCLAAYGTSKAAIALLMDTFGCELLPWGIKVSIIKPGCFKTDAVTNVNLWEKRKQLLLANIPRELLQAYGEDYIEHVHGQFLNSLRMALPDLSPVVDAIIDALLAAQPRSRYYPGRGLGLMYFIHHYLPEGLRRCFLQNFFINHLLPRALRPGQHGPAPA
The assay can be described thus: Inhibition of full-length mouse 11beta-HSD2 expressed in HEK293 microsomal fraction […] after 1 hr by scintillation proximity assay.

Assay [6] concerns the target T4, 11-beta-hydroxysteroid dehydrogenase 1 (Mus musculus, UniProt P50172). Put plainly: Inhibition of full-length mouse 11beta-HSD1 expressed in HEK293 microsomal fraction […] after 1 hr by scintillation proximity assay.
Assay [7] deals with T4, 11-beta-hydroxysteroid dehydrogenase 1. The assay can be described thus: Inhibition of mouse N-terminal His-tagged 11beta-HSD1 expressed in Escherichia coli using cortisol as substrate by fluorescence-based assay.
Assay [8] concerns the target T1, 11-beta-hydroxysteroid dehydrogenase 1. The assay can be described thus: Inhibition of human N-terminal His-tagged 11beta-HSD1 expressed in Escherichia coli using cortisol as substrate by fluorescence-based assay.
Target sequence in this assay (P28845 whole entry): as the sequence (P28845 whole entry, looked up) above

The structures appear in SMILES notation.

The text below walks through data of ChEMBL document CHEMBL4052631, “Synthesis of selective 11β-HSD1 inhibitors based on dammarane scaffold” (Eur J Med Chem, 2017).

For orientation: inhibition means the relative decrease from the control value, in per cent. Read a high inhibition as a strong effect. Usually IC50 stands for the concentration that inhibits the measured activity by half. Low readings indicate inhibition by little substance, high ones a need for much substance.

T4 sequence (P50172 whole entry): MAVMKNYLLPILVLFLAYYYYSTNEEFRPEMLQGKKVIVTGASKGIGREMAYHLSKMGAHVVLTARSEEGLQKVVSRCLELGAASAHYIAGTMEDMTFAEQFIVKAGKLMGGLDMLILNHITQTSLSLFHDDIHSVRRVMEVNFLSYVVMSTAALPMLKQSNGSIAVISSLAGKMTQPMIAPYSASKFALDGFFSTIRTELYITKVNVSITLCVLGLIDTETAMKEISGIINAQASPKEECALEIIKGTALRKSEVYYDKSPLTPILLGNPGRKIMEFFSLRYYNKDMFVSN
Chain of 11-beta-hydroxysteroid dehydrogenase 1 (Mus musculus) (P50172 whole entry, looked up): as the sequence (P50172 whole entry) above

Regarding `CCC(=O)CC[C@]1(C)C(=O)[C@H](O)C[C@@H]2[C@@]3(C)CC[C@H](OC(C)=O)C(C)(C)[C@@H]3CC[C@]21C`, the results for the inhibition in assay [1] and in assay [2] were 54.3% and 11.5%, respectively. In addition, the concentration for half-maximal inhibition (IC50) in assay [3] stood at 0.729 µM; in assay [4] it was 6.26 µM.

As for `CC(C)CCCC(=O)[C@H]1CC[C@]2(C)[C@@H]1[C@H](O)C[C@@H]1[C@@]3(C)CC[C@H](O)C(C)(C)[C@@H]3CC[C@]12C`, the inhibition in assay [2] turned out to be 17.3%. On the same count and under the same terms, the value for `CC(=O)O[C@H]1CC[C@]2(C)[C@H]3C[C@@H](OC(C)=O)[C@@H]4C(=O)CC[C@@]4(C)[C@]3(C)CC[C@H]2C1(C)C` was 12.5%; that for `CC(=O)O[C@H]1CC[C@]2(C)[C@H]3C[C@@H](OC(C)=O)[C@@H]4[C@@H](Cl)CC[C@@]4(C)[C@]3(C)CC[C@H]2C1(C)C` was 8.02%. Turning to `CC(=O)O[C@H]1CC[C@]2(C)[C@H]3C[C@@H](O)[C@@H]4[C@@H](C(C)=O)CC[C@@]4(C)[C@]3(C)CC[C@H]2C1(C)C`, the IC50 in assay [5] is > 10 µM; in assay [6], 0.454 µM. Further, in assay [2], the inhibition worked out at 60.9%. As for `CC(=O)O[C@H]1CC[C@]2(C)[C@H]3C[C@@H](OC(C)=O)C4=CCC[C@@]4(C)[C@]3(C)CC[C@H]2C1(C)C`, the inhibition in assay [2] amounted to 15.4%.

Consider `CC1(C)C=CC[C@]2(C)[C@H]3C[C@@H](O)[C@@H]4[C@@H](O)CC[C@@]4(C)[C@]3(C)CC[C@@H]12`, for which the inhibition in assay [2] amounted to 40.9%. Regarding `CC(C)(O)[C@@H]1CC[C@]2(C)[C@H](C[C@@H](O)[C@@H]3[C@@H](O)CC[C@]32C)[C@@]1(C)CCCO`, the inhibition in assay [2] is 16.1%.

Consider `CC1(C)[C@@H](O)CC[C@]2(C)[C@H]3C[C@@H](O)[C@@H]4[C@@H](C(=O)CO)CC[C@@]4(C)[C@]3(C)CC[C@@H]12`, for which, in assay [2], the inhibition was 32.2%. The compound `CO[C@H]1CC(=O)[C@]2(C)[C@@H]1[C@H](OC(C)=O)C[C@@H]1[C@@]3(C)CC[C@H](O)C(C)(C)[C@@H]3CC[C@]12C` returned an IC50 in assay [6] of 0.4 µM. Consider `CC1(C)[C@@H](O)CC[C@]2(C)[C@H]3C[C@@H](O)[C@@H]4CCC[C@@]4(C)[C@]3(C)CC[C@@H]12`, for which the concentration for half-maximal inhibition (IC50) in assay [5] was > 100 µM; in assay [6] it was 0.592 µM. In assay [2], this compound came in with an inhibition of 58.4%. As to `CC1(C)[C@@H](O)CC[C@]2(C)[C@H]3C[C@@H](O)[C@@H]4[C@@H](CO)CC[C@@]4(C)[C@]3(C)CC[C@@H]12`, the 50% inhibitory concentration (IC50) in assay [5] was > 10 µM; in assay [6], 0.476 µM. This compound also displayed an inhibition in assay [2] of 57.9%. `CCC(=O)CC[C@]1(C)C(=O)[C@H](OC(C)=O)C[C@@H]2[C@@]3(C)CC[C@H](OC(C)=O)C(C)(C)[C@@H]3CC[C@]21C` gave an inhibition in assay [2] of 13.3%. With `CC(=O)O[C@H]1CC[C@]2(C)[C@H]3C[C@@H](O)[C@@H]4[C@@H](O)CC[C@@]4(C)[C@]3(C)CC[C@H]2C1(C)C`, the inhibition is 51.6% in assay [1] and 79% in assay [2]. The concentration for half-maximal inhibition (IC50) in assay [5] was > 10 µM; in assay [3], 0.994 µM; in assay [6] it was 0.213 µM; in assay [4], > 10 µM. Consider `CC1(C)CCC[C@]2(C)[C@H]3C[C@@H](O)[C@@H]4[C@@H](O)CC[C@@]4(C)[C@]3(C)CC[C@@H]12`, for which the inhibition in assay [2] amounted to 6.25%. Regarding `CC(C)(O)[C@@H]1CC[C@]2(C)[C@H](C[C@@H](O)[C@@H]3[C@@H](O)CC[C@]32C)[C@@]1(C)CCC(=O)O`, the inhibition in assay [2] was found to be 20.8%.

Consider `CC(=O)O[C@H]1CC[C@]2(C)[C@H]3C[C@@H](OC(C)=O)[C@@H]4[C@@H](O)CC[C@@]4(C)[C@]3(C)CC[C@H]2C1(C)C`, for which the inhibition in assay [2] was determined as 13.3%. `COCO[C@H]1CC[C@]2(C)[C@H]3C[C@@H](OCOC)[C@@H]4[C@@H](C(C)=O)CC[C@@]4(C)[C@]3(C)CC[C@H]2C1(C)C` showed an inhibition in assay [2] of 11.5%. For the compound `CC(=O)[C@H]1CC[C@]2(C)[C@@H]1[C@H](O)C[C@@H]1[C@@]3(C)CCC(=O)OC(C)(C)[C@@H]3CC[C@]12C`, the inhibition in assay [2] amounted to 27.6%. Consider `CC1(C)[C@@H](O)CC[C@]2(C)[C@H]3C[C@@H](O)[C@@H]4[C@@H](O)CC[C@@]4(C)[C@]3(C)CC[C@@H]12`, for which, in assay [2], the inhibition amounted to 28.2%. In the case of `CC1(C)[C@@H](O)CC[C@]2(C)[C@H]3CC(=O)C4=CCC[C@@]4(C)[C@]3(C)CC[C@@H]12`, the inhibition amounted to 50.2% in assay [1] and 47.4% in assay [2]. Besides, the IC50 came out at 1.05 µM in assay [3] and 9.58 µM in assay [4]. Turning to `COC(=O)[C@H]1CC[C@]2(C)[C@@H]1[C@H](O)C[C@@H]1[C@@]3(C)CC[C@H](O)C(C)(C)[C@@H]3CC[C@]12C`, the inhibition in assay [2] worked out at 7.69%. Regarding `CC1(C)[C@@H](O)CC[C@]2(C)[C@H]3C[C@@H](O)[C@]45O[C@H]4CC[C@@]5(C)[C@]3(C)CC[C@@H]12`, the inhibition in assay [2] was 16.9%.

In assay [2], `CC1(C)[C@@H](O)CC[C@]2(C)[C@H]3C[C@H]4OC[C@H]5CC[C@](C)([C@@H]54)[C@]3(C)CC[C@@H]12` showed an inhibition of 44.9%. In turn, `CC(=O)OCO[C@@H]1C[C@@H]2[C@@]3(C)CC[C@H](O)C(C)(C)[C@@H]3CC[C@@]2(C)[C@]2(C)CCC(=O)[C@@H]12` had an inhibition in assay [2] of 20.9%.

Consider `CC(=O)O[C@H]1CC[C@]2(C)[C@H]3C[C@@H](OC(C)=O)[C@@H]4[C@@H](C(=O)CCCC(C)C)CC[C@@]4(C)[C@]3(C)CC[C@H]2C1(C)C`, for which the inhibition came out at 81.1% in assay [1] and 10.8% in assay [2]. The compound further returned an IC50 in assay [3] of 0.101 µM. `CC1=CC[C@@]2(CC1O)[C@@H](C(=O)O)CC[C@H]2C(C)C` (stereo partly drawn): the half-inhibitory concentration (IC50) turned out to be 0.46 µM in assay [7] and 0.013 µM in assay [8]. For the compound `CC(=O)O[C@H]1CC[C@]2(C)[C@H]3C[C@@H](OC(C)=O)[C@@H]4[C@@H](C(=O)CF)CC[C@@]4(C)[C@]3(C)CC[C@H]2C1(C)C`, the inhibition in assay [2] stood at 11.9%. Consider `CC(=O)[C@H]1CC[C@]2(C)[C@@H]1[C@H](O)C[C@@H]1[C@@]3(C)CC[C@H](O)C(C)(C)[C@@H]3CC[C@]12C`, for which the inhibition in assay [2] was 27.1%. The compound `CC1(C)[C@@H](O)CC[C@]2(C)[C@H]3C[C@@H](O)[C@@H]4[C@H](O)CC[C@@]4(C)[C@]3(C)CC[C@@H]12` showed an inhibition in assay [2] of 47%.

On to `CC1(C)[C@@H](O)CC[C@]2(C)[C@H]3C[C@@H](O)C4=CCC[C@@]4(C)[C@]3(C)CC[C@@H]12`, for which the inhibition in assay [2] came to 33.2%. Regarding `CC(=O)[C@]1(O)CC[C@]2(C)[C@@H]1[C@H](O)C[C@@H]1[C@@]3(C)CC[C@H](O)C(C)(C)[C@@H]3CC[C@]12C`, the 50% inhibitory concentration (IC50) is > 10 µM in assay [5] and 0.601 µM in assay [6]. This compound displayed an inhibition in assay [2] of 65.7%. Regarding `CC(=O)O[C@H]1CC[C@]2(C)[C@H]3C[C@@H](OC(C)=O)[C@@H]4[C@@H](C(=O)CO)CC[C@@]4(C)[C@]3(C)CC[C@H]2C1(C)C`, the inhibition in assay [1] amounted to 62.6%; in assay [2], 20.1%. The compound also gave a half-inhibitory concentration (IC50) in assay [3] of 0.488 µM. With `CC1(C)[C@@H](O)CC[C@]2(C)[C@H]3C[C@@H](O)[C@@H]4[C@@H](C(=O)O)CC[C@@]4(C)[C@]3(C)CC[C@@H]12`, the inhibition in assay [2] was found to be 15.1%. As to `CC1=C2CC[C@]3(C)[C@@H]2[C@@H](C[C@@H]2[C@@]4(C)CC[C@H](O)C(C)(C)[C@@H]4CC[C@]23C)OCO1`, in assay [2], the inhibition is 15.5%. With `CC1(C)[C@@H](O)CC[C@]2(C)[C@H]3C[C@@H](O)[C@@H]4[C@@H](Cl)CC[C@@]4(C)[C@]3(C)CC[C@@H]12`, in assay [2], the inhibition was 35.8%. For the compound `CC(=O)O[C@H]1CC[C@]2(C)[C@H]3C[C@@H](OC(C)=O)[C@@H]4[C@@H](C(C)=O)CC[C@@]4(C)[C@]3(C)CC[C@H]2C1(C)C`, the inhibition amounted to 69.4% in assay [1] and 40.9% in assay [2]. The same compound gave an IC50 in assay [3] of 0.244 µM.
